Holding throughout (details): Membrane
Assay [1] deals with Inositol 1,4,5-trisphosphate-gated calcium channel ITPR3 (Rattus norvegicus) (UniProt Q63269). The experiment in a line: Inositol 1,4,5-trisphosphate receptor activity by residual [3H]- IP3 binding to rat cerebellar membranes by the compound at logC = -6M.
Assay [2] has the same target. The assay can be described thus: Inositol 1,4,5-trisphosphate receptor activity by residual [3H]- IP3 binding to rat cerebellar membranes by the compound at logC = -7M.
Assay [3] has the same target. The assay can be described thus: Inositol 1,4,5-trisphosphate receptor activity by residual [3H]- IP3 binding to rat cerebellar membranes by the compound at logC = -8M.
For assay [4] the target is unchanged. The experiment in a line: Inositol 1,4,5-trisphosphate receptor activity by residual [3H]- IP3 binding to rat cerebellar membranes by the compound at logC = -9M.
For assay [5] the target is unchanged. The experiment in a line: Inositol 1,4,5-trisphosphate receptor activity by residual [3H]- IP3 binding to rat cerebellar membranes by the compound at logC = -5M.

Each structure is given as a SMILES string.

Chain of Inositol 1,4,5-trisphosphate-gated calcium channel ITPR3 (Rattus norvegicus) (Q63269 whole entry): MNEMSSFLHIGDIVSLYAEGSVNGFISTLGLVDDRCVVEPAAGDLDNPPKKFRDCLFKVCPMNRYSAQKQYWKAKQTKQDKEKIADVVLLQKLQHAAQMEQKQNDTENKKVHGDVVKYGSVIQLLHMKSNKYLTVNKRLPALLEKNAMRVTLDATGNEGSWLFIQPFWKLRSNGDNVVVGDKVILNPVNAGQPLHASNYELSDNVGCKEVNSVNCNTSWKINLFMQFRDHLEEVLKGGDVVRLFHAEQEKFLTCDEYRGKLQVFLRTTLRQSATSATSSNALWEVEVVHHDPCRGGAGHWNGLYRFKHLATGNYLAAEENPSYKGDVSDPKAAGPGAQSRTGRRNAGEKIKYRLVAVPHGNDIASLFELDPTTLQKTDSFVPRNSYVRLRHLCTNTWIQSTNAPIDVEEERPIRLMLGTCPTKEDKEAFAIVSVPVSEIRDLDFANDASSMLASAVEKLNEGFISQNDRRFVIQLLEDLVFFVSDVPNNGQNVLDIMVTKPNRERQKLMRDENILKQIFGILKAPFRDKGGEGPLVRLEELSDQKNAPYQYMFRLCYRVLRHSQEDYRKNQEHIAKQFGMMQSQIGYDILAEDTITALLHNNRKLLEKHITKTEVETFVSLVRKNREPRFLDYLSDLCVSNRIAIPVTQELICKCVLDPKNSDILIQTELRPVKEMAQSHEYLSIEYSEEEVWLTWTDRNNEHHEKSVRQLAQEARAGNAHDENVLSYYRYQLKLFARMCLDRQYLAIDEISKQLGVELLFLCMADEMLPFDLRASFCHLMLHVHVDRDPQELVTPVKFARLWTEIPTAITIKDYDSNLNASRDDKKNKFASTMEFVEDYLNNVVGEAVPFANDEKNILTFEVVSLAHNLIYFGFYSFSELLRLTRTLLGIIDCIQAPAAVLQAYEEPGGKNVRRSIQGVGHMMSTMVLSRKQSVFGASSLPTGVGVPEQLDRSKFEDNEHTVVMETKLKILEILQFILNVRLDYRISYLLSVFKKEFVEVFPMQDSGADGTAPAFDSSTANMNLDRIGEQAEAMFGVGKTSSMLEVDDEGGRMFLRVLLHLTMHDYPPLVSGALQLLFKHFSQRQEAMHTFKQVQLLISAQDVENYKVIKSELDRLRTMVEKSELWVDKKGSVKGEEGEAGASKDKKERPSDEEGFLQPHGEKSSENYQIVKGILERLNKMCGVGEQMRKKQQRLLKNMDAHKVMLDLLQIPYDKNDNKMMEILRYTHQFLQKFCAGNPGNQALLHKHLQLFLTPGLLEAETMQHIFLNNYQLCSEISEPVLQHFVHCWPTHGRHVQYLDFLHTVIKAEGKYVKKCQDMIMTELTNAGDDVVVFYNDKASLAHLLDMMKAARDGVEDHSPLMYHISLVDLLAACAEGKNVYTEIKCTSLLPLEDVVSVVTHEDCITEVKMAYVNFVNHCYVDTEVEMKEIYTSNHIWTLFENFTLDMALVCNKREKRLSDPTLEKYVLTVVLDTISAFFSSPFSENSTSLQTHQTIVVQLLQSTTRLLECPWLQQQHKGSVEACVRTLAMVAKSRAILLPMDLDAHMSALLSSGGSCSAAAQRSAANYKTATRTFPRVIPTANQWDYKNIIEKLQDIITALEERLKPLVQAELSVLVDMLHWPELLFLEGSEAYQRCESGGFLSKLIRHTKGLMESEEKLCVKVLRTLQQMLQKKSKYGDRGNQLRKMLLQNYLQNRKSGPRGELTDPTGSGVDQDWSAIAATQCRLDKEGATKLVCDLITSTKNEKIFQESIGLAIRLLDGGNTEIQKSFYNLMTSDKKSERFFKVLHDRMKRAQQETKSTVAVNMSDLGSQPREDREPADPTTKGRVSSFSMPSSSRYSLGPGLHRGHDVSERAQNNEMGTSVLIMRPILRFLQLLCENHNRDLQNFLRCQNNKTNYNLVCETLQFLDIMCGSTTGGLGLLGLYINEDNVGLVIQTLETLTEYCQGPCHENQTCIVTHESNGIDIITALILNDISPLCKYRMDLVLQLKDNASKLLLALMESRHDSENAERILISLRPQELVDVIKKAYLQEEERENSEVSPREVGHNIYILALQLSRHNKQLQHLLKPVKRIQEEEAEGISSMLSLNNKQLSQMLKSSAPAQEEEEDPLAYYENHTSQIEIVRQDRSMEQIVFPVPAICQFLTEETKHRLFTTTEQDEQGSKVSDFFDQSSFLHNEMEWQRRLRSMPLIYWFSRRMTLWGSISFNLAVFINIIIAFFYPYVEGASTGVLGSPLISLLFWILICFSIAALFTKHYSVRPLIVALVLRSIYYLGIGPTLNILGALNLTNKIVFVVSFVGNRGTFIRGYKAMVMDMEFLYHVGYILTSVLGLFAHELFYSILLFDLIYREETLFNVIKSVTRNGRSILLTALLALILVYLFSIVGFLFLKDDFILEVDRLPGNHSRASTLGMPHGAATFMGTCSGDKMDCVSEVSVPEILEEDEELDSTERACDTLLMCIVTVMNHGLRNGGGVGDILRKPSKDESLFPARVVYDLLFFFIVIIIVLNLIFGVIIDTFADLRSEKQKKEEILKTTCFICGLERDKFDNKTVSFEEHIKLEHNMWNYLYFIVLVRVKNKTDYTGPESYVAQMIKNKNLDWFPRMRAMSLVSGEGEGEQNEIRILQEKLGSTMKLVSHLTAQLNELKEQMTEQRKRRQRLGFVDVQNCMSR

For the compound `O=P(O)(O)O[C@@H]1[C@@H](O)[C@H](OP(=O)(O)O)[C@H](O)C[C@H]1OP(=O)(O)O`, the residual activity came to 20% in assay [1], 50% in assay [2] and 100% in assay [3].

`O=P(O)(O)O[C@@H]1[C@H](O)[C@@H](O)[C@@H](OP(=O)(O)O)[C@H](OP(=O)(O)O)[C@H]1O`: the residual activity was 5% in assay [1]; 20% in assay [2]; 95% in assay [4]; 5% in assay [5]; 70% in assay [3].

For the compound `O=P(O)(O)O[C@@H]1[C@@H](O)[C@H](OP(=O)(O)O)[C@H](O)C[C@@H]1OP(=O)(O)O`, the residual activity in assay [1] was 80%; in assay [2], 100%; in assay [4] it was 100%; in assay [5], 40%; in assay [3], 110%.

Values taken from ChEMBL document CHEMBL1128623, “Influence of the absolute configuration at C-4 in the binding of d-myoinositol 1,4,5 trisphosphate analogues to IP3 receptor” (Bioorg Med Chem Lett, 1995).
